# According to PMC7072329, “Discovery of Kynurenines Containing Oligopeptides as Potent Opioid Receptor Agonists” (Biomolecules, 2020):
# Where a SMILES comes first, the peptide text is derived from it. [ ]: non-standard residue; d: D form. Kyn = Nc1ccccc1C(=O)C[C@H](N)C(=O)O
# Tests used:
# NMDA receptor = experiment: [3H]MK-801 competition binding, rat brain membrane; conditions: read-out: Ki + S.E.M., displacement of [3H]MK-801
# CD-1 male mice = experiment: formalin test; format: in vivo; conditions: s.c. in hind paw, 100 μg/20 μL, 15 min before formalin
# Description: In our experiments, we used CD-1 male mice (Harlan, Italy, 25–30 g) maintained in colony, housed in cages (7 mice per cage) under standard light/dark cycle (from 7:00 a.m. to 7:00 p.m.), temperature (21 ± 1 °C) and relative humidity (60% ± 10%) for at least 1 week. Food and water were available ad libitum. The Service for Biotechnology and Animal Welfare of the Istituto Superiore di Sanità and the Italian Ministry of Health authorized the experimental protocol according to Legislative Decree 26/14.
# DMSO was purchased from Merck (Rome, Italy). Peptides solutions were freshly prepared using saline containing 0.9% NaCl and DMSO in the ratio DMSO/saline 1:5 v/v every experimental day. These solutions were injected at a volume of 10 μL/mouse for intracerebroventricular (i.c.v.) administrations or at a volume of 20 μL/mouse for subcutaneous administrations.
# In the formalin test, the injection of a dilute solution of formalin (1%, 20 μL/paw) into the dorsal surface of the mouse hind paw evoked biphasic nociceptive behavioral responses, such as licking, biting the injected paw, or both, occurring from 0 to 10 min after formalin injection (the early phase) and a prolonged phase, occurring from 15 to 40 min (the late phase). Before the test, mice were individually placed in a Plexiglas observation cage (30 × 14 × 12 cm) for one hour, to acclimatize to the testing environment. The total time the animal spent licking or biting its paw during the early and late phase of formalin-induced nociception was recorded.
# Experimental data were expressed as mean ± s.e.m. In the tail flick test, significant differences among the groups were evaluated with two-way ANOVA followed by Sidak’s multiple comparisons test. Formalin test data were analyzed by using one-way ANOVA, followed by Holm–Sidak’s multiple comparisons test. […] Statistical significance was set at p < 0.05. The data and statistical analysis comply with the recommendations on experimental design and analysis in pharmacology.
# Early phase represents the formalin-induced nociceptive behavior recorded from 0 to 10 min after formalin injection; late phase is for the formalin-induced nociceptive behavior recorded from 15 to 40 min after formalin injection. V is for vehicle-treated animals. Statistical analysis: one-way ANOVA followed by Holm–Sidak’s multiple comparisons test. ** is for p < 0.01 and *** is for p < 0.001 vs. V. n = 7.
# [1] = stability in human plasma; format: in vitro ADME; conditions: 37 °C
# Description: Five microliters of K6 (500 μg in 250 μL of water) were added to 45 μL of fresh human plasma, then incubated at 37 ± 1 °C. Prepared samples were removed at several designated time points and incubation was stopped by adding an equal volume of the sequencing mixture (5% aqueous ZnSO4 solution, MeOH, and ACN; 5:3:2), which precipitated proteins, to achieve a final concentration of 100 μg/mL. The mixture was vortexed and centrifuged at 12,000× g for 5 min, then 20 μL of clear supernatant was directly injected into the HPLC system (Waters model 600 solvent pump and 2996 photodiode array detector, with XBridge BEH 130 C18, 4.6 × 250 mm, 5 μm). The samples were tested in three independents experiments (n = 3) and reported values represent the mean ± standard error (SEM). Data were analysed using simple regression analysis (significant deviation from zero: F1,13 = 171.9, p < 0.0001; Y = −0.9705 × X + 95.98).
# Five calibration standards were injected into the HPLC-UV/Vis system. HPLC analyses were performed on a Waters liquid chromatograph equipped with a model 600 solvent pump and a 2996 photodiode array detector, and the mobile phase was degassed directly on-line by using Degassex, mod. DG-4400 (Phenomenex, Torrance, CA, USA). Empower v2.0 Software (Waters Spa, Milford, MA, USA) was used for data acquisition and elaboration. A reversed-phase packing column (XBridge BEH 130 C18, 4.6 × 250 mm, 5 μm; Waters Spa, Milford, MA, USA) was employed for the separation and the column was held at room temperature (22 ± 1 °C). K6 remaining concentrations at different times are reported below. For quantitative analyses, selective detection was performed at 210 nm. Gradient elution mode was performed using a mobile phase containing a […] water-ACN ratio as starting conditions and gradient program as reported. […]
# All the sample solutions were previously centrifuged and 20 µL of the supernatant was injected into the HPLC-UV/Vis system. Calibration curves from 2 to 10 μg/mL were calculated by analyzing five non-zero concentration standards prepared in freshly spiked plasma solution in triplicate and extracted. All quantitative analyses were performed at 210 nm. Calibration curves were linear with r2 values always greater than 0.988 (n = 3). In reported chromatographic conditions, the retention times for K6 was 16.45 minutes (± 0.4, n = 20), the substance identity was confirmed by LS-MS analysis.
# Time ( minutes) K6 Concentration (µg/mL) K6% of degradation
smiles,measurement,setting,value
C[C@@H](NC(=O)[C@@H](N)Cc1ccc(O)cc1)C(=O)NCC(=O)N[C@@H](Cc1ccccc1)C(=O)N[C@@H](CC(=O)c1ccccc1N)C(N)=O [Peptide K6] (H-Y[dA]GF[Kyn]-NH2),Ki,NMDA receptor,> 10 µM
same,"formalin-induced nociceptive behavior, early phase",CD-1 male mice; 0 to 10 min,able to reduce the nociceptive response to formalin in the early phase
same,"formalin-induced nociceptive behavior, late phase",CD-1 male mice; 15 to 40 min,light but not significant reduction
same,K6% of degradation,[1]; 0 minutes,0%
same,"metabolised at 5 min, 200 μg/mL","[1]; fresh human plasma, 5 minutes, read-out: K6% of degradation",7%
same,"metabolised at 10 min, 200 μg/mL","[1]; fresh human plasma, 10 minutes, read-out: K6% of degradation",15%
same,"metabolised at 0.5 h, 200 μg/mL","[1]; fresh human plasma, 30 minutes, read-out: K6% of degradation",36%
same,"metabolised at 1 h, 200 μg/mL","[1]; fresh human plasma, 60 minutes, read-out: K6% of degradation",56%
same,half-life at 200 μg/mL,"[1]; plasma (fresh), linear regression, read-out: t1/2 in human plasma",47 min
